Laboratory results from paper PMC2866172 (Journal of medicinal chemistry, 2010).

Legend:
[1] = Torso PET imaging in anesthetized baboons; conditions: for Calculated drug concentration in heart / Calculated drug concentration in kidney cortex / Calculated drug concentration in kidney medulla / Calculated drug concentration in liver / Calculated drug concentration in lung / Calculated drug concentration in plasma / Calculated drug concentration in gallbladder: 17 kg baboon; for Concentration in heart / Concentration in kidney cortex / Concentration in kidney medulla / Concentration in liver / Concentration in lung / Concentration in plasma / Concentration in gallbladder: baboon, i.v.
[2] = Brain PET imaging in anesthetized baboons; conditions: for Estimated concentration in whole brain, C30min / Concentration in whole brain, C30min: 30 min; for Estimated concentration in whole brain, C30min / Estimated concentration in whole brain, C60min / Estimated concentration in whole brain, C90min: signal assumed intact drug; for Estimated concentration in whole brain, C60min / Concentration in whole brain, C60min: 60 min; for Estimated concentration in whole brain, C90min / Concentration in whole brain, C90min: 90 min; for Concentration in whole brain, C30min / Concentration in whole brain, C60min / Concentration in whole brain, C90min: baboon, i.v.
[3] = 15 min, calculated assuming 20 mg/kg dose
[4] = 30 min, calculated assuming 20 mg/kg dose
[5] = 60 min, calculated assuming 20 mg/kg dose
[6] = 90 min, calculated assuming 20 mg/kg dose
[7] = estimated from baboon weight, 20 mg/kg dose
[8] = 15 min, calculated assuming 10 mg/kg dose
[9] = 30 min, calculated assuming 10 mg/kg dose
[10] = 60 min, calculated assuming 10 mg/kg dose
[11] = 90 min, calculated assuming 10 mg/kg dose
[12] = estimated for 17 kg baboon, 10 mg/kg dose

## N[11C](=O)c1cnccn1 [[^11C]PZA]
[1]; [3]
  Calculated drug concentration in heart: (67.76) µg/ml
  Calculated drug concentration in kidney cortex: (20.52) µg/ml
  Calculated drug concentration in kidney medulla: (617.02) µg/ml
  Calculated drug concentration in liver: (36.14) µg/ml
  Calculated drug concentration in lung: (35.03) µg/ml
  Calculated drug concentration in plasma: (22.03) µg/ml
[1]; [4]
  Calculated drug concentration in heart: (61.50) µg/ml
  Calculated drug concentration in kidney cortex: (16.59) µg/ml
  Calculated drug concentration in kidney medulla: (474.39) µg/ml
  Calculated drug concentration in liver: (26.96) µg/ml
  Calculated drug concentration in lung: (26.48) µg/ml
  Calculated drug concentration in plasma: (14.59) µg/ml
[1]; [5]
  Calculated drug concentration in heart: (57.59) µg/ml
  Calculated drug concentration in kidney cortex: (12.55) µg/ml
  Calculated drug concentration in kidney medulla: (343.00) µg/ml
  Calculated drug concentration in liver: (21.98) µg/ml
  Calculated drug concentration in lung: (22.17) µg/ml
  Calculated drug concentration in plasma: (11.25) µg/ml
[1]; [6]
  Calculated drug concentration in heart: (59.49) µg/ml
  Calculated drug concentration in kidney cortex: (9.93) µg/ml
  Calculated drug concentration in kidney medulla: (229.44) µg/ml
  Calculated drug concentration in liver: (19.19) µg/ml
  Calculated drug concentration in lung: (18.58) µg/ml
  Calculated drug concentration in plasma: (9.04) µg/ml
[1]; 15 min after administration
  Concentration in heart: 0.0199 %ID/cc
  Concentration in kidney cortex: 0.0060 %ID/cc
  Concentration in kidney medulla: 0.1815 %ID/cc
  Concentration in liver: 0.0106 %ID/cc
  Concentration in lung: 0.0103 %ID/cc
  Concentration in plasma: 0.00648 %ID/cc
[1]; 30 min after administration
  Concentration in heart: 0.0181 %ID/cc
  Concentration in kidney cortex: 0.0049 %ID/cc
  Concentration in kidney medulla: 0.1395 %ID/cc
  Concentration in liver: 0.0079 %ID/cc
  Concentration in lung: 0.0078 %ID/cc
  Concentration in plasma: 0.00429 %ID/cc
[1]; 60 min after administration
  Concentration in heart: 0.0169 %ID/cc
  Concentration in kidney cortex: 0.0037 %ID/cc
  Concentration in kidney medulla: 0.1009 %ID/cc
  Concentration in liver: 0.0065 %ID/cc
  Concentration in lung: 0.0065 %ID/cc
  Concentration in plasma: 0.00331 %ID/cc
[1]; 90 min after administration
  Concentration in heart: 0.0175 %ID/cc
  Concentration in kidney cortex: 0.0029 %ID/cc
  Concentration in kidney medulla: 0.0675 %ID/cc
  Concentration in liver: 0.0056 %ID/cc
  Concentration in lung: 0.0055 %ID/cc
  Concentration in plasma: 0.00266 %ID/cc
[2]; [7]
  Estimated concentration in whole brain, C30min: 21.05 µg/mL
  Estimated concentration in whole brain, C60min: 15.74 µg/mL
  Estimated concentration in whole brain, C90min: 13.70 µg/mL
[2]
  Concentration in whole brain, C30min: 0.00619 %ID/cc
  Concentration in whole brain, C60min: 0.00463 %ID/cc
  Concentration in whole brain, C90min: 0.00403 %ID/cc

## CO[C@H]1/C=C/O[C@@]2(C)Oc3c(C)c(O)c4cc(c(/C=N/N5CCN([11CH3])CC5)c(O)c4c3C2=O)NC(=O)/C(C)=C\C=C\C(C)[C@H](O)[C@@H](C)[C@@H](O)[C@@H](C)[C@H](OC(C)=O)[C@@H]1C (stereo partly drawn) [[^11C]RIF]
[1]; [8]
  Calculated drug concentration in gallbladder: (121.40) µg/ml
  Calculated drug concentration in heart: (7.28) µg/ml
  Calculated drug concentration in kidney cortex: (15.79) µg/ml
  Calculated drug concentration in kidney medulla: (36.39) µg/ml
  Calculated drug concentration in liver: (258.98) µg/ml
  Calculated drug concentration in lung: (5.03) µg/ml
  Calculated drug concentration in plasma: (2.81) µg/ml
[1]; [9]
  Calculated drug concentration in gallbladder: (586.34) µg/ml
  Calculated drug concentration in heart: (5.28) µg/ml
  Calculated drug concentration in kidney cortex: (6.34) µg/ml
  Calculated drug concentration in kidney medulla: (11.63) µg/ml
  Calculated drug concentration in liver: (276.12) µg/ml
  Calculated drug concentration in lung: (2.83) µg/ml
  Calculated drug concentration in plasma: (1.50) µg/ml
[1]; [10]
  Calculated drug concentration in gallbladder: (983.24) µg/ml
  Calculated drug concentration in heart: (1.93) µg/ml
  Calculated drug concentration in kidney cortex: (0.43) µg/ml
  Calculated drug concentration in kidney medulla: (6.73) µg/ml
  Calculated drug concentration in liver: (288.05) µg/ml
  Calculated drug concentration in lung: (2.53) µg/ml
  Calculated drug concentration in plasma: (1.14) µg/ml
[1]; [11]
  Calculated drug concentration in gallbladder: (1009.99) µg/ml
  Calculated drug concentration in heart: (6.80) µg/ml
  Calculated drug concentration in kidney cortex: (8.19) µg/ml
  Calculated drug concentration in kidney medulla: (9.44) µg/ml
  Calculated drug concentration in liver: (299.73) µg/ml
  Calculated drug concentration in plasma: (1.16) µg/ml
[1]; 15 min after administration
  Concentration in gallbladder: 0.0714 %ID/cc
  Concentration in heart: 0.0043 %ID/cc
  Concentration in kidney cortex: 0.0093 %ID/cc
  Concentration in kidney medulla: 0.0214 %ID/cc
  Concentration in liver: 0.1523 %ID/cc
  Concentration in lung: 0.003 %ID/cc
  Concentration in plasma: 0.00165 %ID/cc
[1]; 30 min after administration
  Concentration in gallbladder: 0.3449 %ID/cc
  Concentration in heart: 0.0031 %ID/cc
  Concentration in kidney cortex: 0.0037 %ID/cc
  Concentration in kidney medulla: 0.0068 %ID/cc
  Concentration in liver: 0.1624 %ID/cc
  Concentration in lung: 0.0017 %ID/cc
  Concentration in plasma: 0.00088 %ID/cc
[1]; 60 min after administration
  Concentration in gallbladder: 0.5784 %ID/cc
  Concentration in heart: 0.0011 %ID/cc
  Concentration in kidney cortex: 0.0003 %ID/cc
  Concentration in kidney medulla: 0.004 %ID/cc
  Concentration in liver: 0.1694 %ID/cc
  Concentration in lung: 0.0015 %ID/cc
  Concentration in plasma: 0.00067 %ID/cc
[1]; 90 min after administration
  Concentration in gallbladder: 0.5941 %ID/cc
  Concentration in heart: 0.004 %ID/cc
  Concentration in kidney cortex: 0.0048 %ID/cc
  Concentration in kidney medulla: 0.0056 %ID/cc
  Concentration in liver: 0.1763 %ID/cc
  Concentration in plasma: 0.00068 %ID/cc
[2]; [12]
  Estimated concentration in whole brain, C30min: 1.09 µg/mL
  Estimated concentration in whole brain, C60min: 0.912 µg/mL
  Estimated concentration in whole brain, C90min: 1.21 µg/mL
[2]
  Concentration in whole brain, C30min: 0.000642 %ID/cc
  Concentration in whole brain, C60min: 0.000536 %ID/cc
  Concentration in whole brain, C90min: 0.00071 %ID/cc
